Assay results taken from EP4643856A1, “CARBAZOLE DERIVATIVES USED AS NEUROPROTECTANTS AND IN THE TREATMENT OF DISORDERS WITH REDUCED NAD METABOLISM” (Centre National de la Recherche Scientifique, priority 2024, dated 2025).
Entries after “also recorded” stand apart in the source; their conditions may differ.

Assays:
[1] = test system: rat model of paclitaxel-induced neuropathy; assay: Rat model of paclitaxel-induced neuropathy, electronic von Frey test; format: in vivo; settings: days 4, 7, 11 and 14
Procedure: (§1) This clearly indicates an activation of the pathways leading to NADH production. • Figure 3 represents the effect of compounds I-a, I-f, I-m, I-n, I-q and the comparative example on the cytotoxicity mediated by NAMPT inhibitor FK866. HeLa cells were seeded in microplates and incubated with 3.5 nM FK866 without (black) or in the presence of 6 µM of I-a and different analogues (grey), as indicated, for 72 hours. A viability assay (prestoblue assay) was then conducted. […] Behavioral assessments were performed on 5-week-old male Sprague-Dawley rats before (basal values) and at days 4, 7, 11 and 14 after the beginning of the drug injections (Compound I-a 50 mg/kg, paclitaxel (PTX) 4 mg/kg, Compound I-a 50 mg/kg + PTX 4 mg/kg). Control animals (Vehicle) received vehicle injections. The results are presented by mean ± standard deviation (n = 6 per group). Tactile nociceptive thresholds were assessed using an electronic von Frey test (J. Ferrier, F. Marchand, D. Balayssac, Assessment of mechanical allodynia in rats using the electronic von frey test, BIO-Protoc., 6 (2016), 10.21769/BioProtoc.1933). Rats were placed individually in plastic compartments on an elevated wire floor and left for habituation for 15 min before each experiment. […] The maximum force applied (expressed in grams) to induce paw withdrawal was recorded automatically.

HeLa cells [2] = assay: FK866-induced cytotoxicity, viability assay (prestoblue assay); format: cell-based; settings: 3.5 nM FK866 in the presence of 6 µM compound, 72 hours
Procedure: as §1
The compound FK866 is known to be a potent selective inhibitor of the NAMPT enzyme. Administration of FK866 in cultured cells results in depletion of intracellular NAD levels and subsequent cell death. The effect of compound I-a and other compounds of the series on FK866-induced cytotoxicity in HeLa cells was assayed.
HeLa cells were seeded in microplates and incubated with 3.5 nM FK866 without (black) or in the presence of 6 µM of I-a and different analogues (grey), as indicated, for 72 hours. A viability assay (prestoblue assay) was then conducted.

NAMPT = NAMPT (Homo sapiens, UniProt P43490); assay: NAMPT activation in vitro, biochemical assay
HeLa cells [3] = assay: Kinetics of NADH autofluorescence (endogenous NADH production) by confocal microscopy; format: cell-based; settings: I-a (5 µM) or I-s (0.5 µM), 25-minute analysis, in comparison with controls

NAMPT, sequence (P43490 whole entry, species assumed): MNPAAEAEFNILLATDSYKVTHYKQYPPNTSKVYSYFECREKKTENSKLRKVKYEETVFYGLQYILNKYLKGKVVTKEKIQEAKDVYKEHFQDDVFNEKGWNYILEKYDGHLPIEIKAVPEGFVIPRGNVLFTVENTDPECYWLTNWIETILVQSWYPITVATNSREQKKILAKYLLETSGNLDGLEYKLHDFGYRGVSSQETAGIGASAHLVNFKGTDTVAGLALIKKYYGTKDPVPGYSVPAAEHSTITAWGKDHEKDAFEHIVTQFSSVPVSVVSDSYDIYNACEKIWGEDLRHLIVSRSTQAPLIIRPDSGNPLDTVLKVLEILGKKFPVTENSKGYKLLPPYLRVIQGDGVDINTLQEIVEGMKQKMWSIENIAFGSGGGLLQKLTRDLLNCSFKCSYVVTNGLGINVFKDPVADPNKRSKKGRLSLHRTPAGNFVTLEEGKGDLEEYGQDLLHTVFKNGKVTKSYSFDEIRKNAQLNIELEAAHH

SMILES | effect on FK866-induced cell death (HeLa cells [2]) | also measured
CC(=O)O[C@H]1C(=O)[C@@]2(C)[C@H]([C@H](OC(=O)c3ccccc3)[C@]3(O)C[C@H](OC(=O)[C@H](O)[C@@H](NC(=O)c4ccccc4)c4ccccc4)C(C)=C1C3(C)C)[C@]1(OC(C)=O)CO[C@@H]1C[C@@H]2O [PTX, paclitaxel, reference compound] | – | tactile sensitivity (tactile nociceptive thresholds, von Frey) ([1]; PTX 4 mg/kg alone, compared with basal value at day 0): progressively induce a tactile hypersensitivity; also recorded: developed progressively tactile hypersensitivity
Cc1cc(-n2cccc2)c(C)c2c1[nH]c1ccc(Br)cc12 [I-f] | can relieve the cytotoxicity of the NAMPT inhibitor FK866; also recorded: reduced cell death | –
CCc1cccc2c1[nH]c1c(C)cc(-n3cccc3)c(C)c12 [I-q] | significantly reduced cell death | –
Cc1cc(-n2cccc2)c(C)c2c1[nH]c1ccc(O)cc12 [I-m] | no detectable protective effect | –
CCOC(=O)Oc1ccc2[nH]c3c(C)cc(-n4cccc4)c(C)c3c2c1 [I-n] | significantly reduced cell death | –
COc1cccc(NCC(F)Cn2c3ccc(Cl)cc3c3c(C)c(-n4cccc4)cc(C)c32)c1 (centres unmarked) [Comparative example, N-[3-(6-chloro-1,4-dimethyl-3-pyrrol-1-yl-carbazol-9-yl)-2-fluoro-propyl]-3-methoxy-aniline, reference compound] | does not reduce FK866-induced cell death | –
Cc1cc(-n2cccc2)c(C)c2c1[nH]c1ccc(Cl)cc12 [I-a, 6-chloro-1,4-dimethyl-3-pyrrol-1-yl-9H-carbazole] | significantly reduced cell death | tactile sensitivity (tactile nociceptive thresholds, von Frey) ([1]; Compound I-a 50 mg/kg + PTX 4 mg/kg, force in grams, n = 6 per group): prevents the hypersensitivity induced by PTX; NAMPT activation (NAMPT): activates NAMPT in vitro; NADH production (NADH autofluorescence) (HeLa cells [3]): dose-dependent increase in NADH production
Cc1cc(-n2ccc(CO)c2)c(C)c2c1[nH]c1ccc(Cl)cc12 [I-s] | – | NADH production (NADH autofluorescence) (HeLa cells [3]): dose-dependent increase in NADH production
